Laboratory results from US7265087B1, “Exendin improves β-cell response in subjects with impaired glucose tolerance” (priority 1998, dated 2007).
Where “and” joins values, the source holds several entries; their conditions need not be identical. Equal entries are not always repeated. No end group written: not given here.

How the values were obtained:
[1] = system: subjects with impaired glucose tolerance (IGT); experiment: 12 hour oscillatory glucose infusion with constant GLP-1 infusion, subjects with IGT; format: in vivo, human; parameters: Mean glucose 12 hour GLP-1 / Mean ISR 12 hour GLP-1: unit not given beside the values
Protocol: (§1) The studies described herein were performed in 10 subjects who were divided into two groups on the basis of their plasma glucose response to an oral glucose tolerance test using the criteria of the World Health Organization to define the degree of glucose tolerance. Five subjects had IGT, and five subjects had NIDDM. The gender, age, body mass index (BMI), basal levels of fasting glucose, 2 hour glucose, fasting insulin, and HBA1c for each subject are presented in Table 2. Diabetic subjects were older than those with IGT, but the groups were matched for by BMI. Mean fasting glucose levels and glycosylated hemoglobin concentrations were lower in the IGT group compared to subjects with NIDDM.
(§2) The coefficient of variation of this method was <2%. […] The average intraassay coefficient of variation was 5%. […] Diabetes 27, Suppl 1: 170-177, 1978.
(§3) All results are expressed as mean±SEM. Data analysis was performed using the Statistical Analysis System (SAS Version 6 Edition, for Personal Computers, SAS Institute, Inc., Cary, N.C.). The significance of differences within the individual induced by GLP-1 infusion was determined using paired t tests. Differences were considered to be significant if P<0.05.
(§4) Standard kinetic parameters for C-peptide clearance adjusted for age, sex and body surface area were utilized, Van Cauter E, Mestrez, F, Sturis J, Polonsky K S. Estimation of insulin secretion rates from C-peptide levels: comparison of individual and standard kinetic parameters for C-peptide clearance. Diabetes 41:368-377, 1992. These parameters were used to derive, in each 15 minute interval between blood sampling, the ISR from the plasma C-peptide concentrations by deconvolution as previously described.
(§5) Each subject was studied on three separate occasions. All studies were performed after a 12-hour overnight fast beginning at 0700 unless otherwise stated with subjects in the recumbent position. An intravenous catheter was placed in each forearm, one for blood sampling and one for administration of glucose and GLP-1 as needed. In all experiments, the arm containing the sampling catheter was maintained in a heating blanket to ensure arterialization of the venous sample. In the following examples, the GLP-1 was administered to the subjects in the GLP-1 (7-36) amide form.
(§6) In order to determine whether the β-cells were able to detect and respond to oscillations of glucose, glucose was infused in an oscillatory pattern with a small volume of saline for 12 hours.
(§7) To determine whether insulin secretion was entrained by glucose in individual subjects, the temporal profiles of insulin secretion were analyzed by spectral analysis. Spectral power analysis was used to evaluate the presence of tight coupling between oscillations in glucose and oscillations in ISR. This method evaluated the regularity of insulin secretory oscillations at a predetermined frequency. Spectral peaks correspond to the dominant periodicity and height of the peaks correspond to spectral power. Each spectrum was normalized assuming the total variance of each series to be 100% and was expressed as the normalized spectral power.

subjects with NIDDM = experiment: 12 hour oscillatory glucose infusion with constant GLP-1 infusion, subjects with NIDDM; format: in vivo, human; parameters: Mean glucose 12 hour GLP-1: unit not given beside the values
Protocol: as §1, §2, §3, §4
The diabetic subjects were treated with diet alone with the exception of one subject D07, who was previously treated with an oral hypoglycemic agent that was discontinued 4 weeks prior to the study. None of the diabetic patients had ever received insulin. All subjects were placed on a weight maintenance diet containing at least 200 g of carbohydrate per day for two weeks before the study.
as §5, §6, §7

pancreas = conditions: background statement; cited from earlier work

CC[C@H](C)[C@H](NC(=O)[C@H](Cc1ccccc1)NC(=O)[C@H](CCC(=O)O)NC(=O)[C@H](CCCCN)NC(=O)[C@H](C)NC(=O)[C@H](C)NC(=O)[C@H](CCC(N)=O)NC(=O)CNC(=O)[C@H](CCC(=O)O)NC(=O)[C@H](CC(C)C)NC(=O)[C@H](Cc1ccc(O)cc1)NC(=O)[C@H](CO)NC(=O)[C@H](CO)NC(=O)[C@@H](NC(=O)[C@H](CC(=O)O)NC(=O)[C@H](CO)NC(=O)[C@@H](NC(=O)[C@H](Cc1ccccc1)NC(=O)[C@@H](NC(=O)CNC(=O)[C@H](CCC(=O)O)NC(=O)[C@H](C)NC(=O)[C@@H](N)Cc1c[nH]cn1)[C@@H](C)O)[C@@H](C)O)C(C)C)C(=O)N[C@@H](C)C(=O)N[C@@H](Cc1c[nH]c2ccccc12)C(=O)N[C@@H](CC(C)C)C(=O)N[C@H](C(=O)N[C@@H](CCCCN)C(=O)NCC(=O)N[C@@H](CCCNC(=N)N)C(N)=O)C(C)C [GLP-1, GLP-1 (7-36) amide]
Mean ISR 12 hour GLP-1 ([1]; IGT group, Mean ± SEM, n=5, GLP-1 0.4 pmol/kg/min for 12 hours): 654.2 ± 152.1 | Mean glucose 12 hour GLP-1 ([1]; IGT group, Mean ± SEM, n=5, GLP-1 0.4 pmol/kg/min for 12 hours, P<0.05 vs saline): 6.35 ± 0.08 | mean ISRs during GLP-1 infusion compared to saline infusion ([1]; IGT subjects): not significantly different | average drop of mean glucose levels during GLP-1 infusion compared to saline ([1]; IGT subjects, P<0.02, mean±SEM): 2.4 ± 0.6 mM | mean normalized spectral power for glucose during GLP-1 infusion ([1]; IGT subjects, P=0.19 vs saline, mean±SEM): 13.2±1.6 | increase of mean insulin levels during GLP-1 infusion compared to saline ([1]; IGT subjects, P=0.32, mean±SEM): 102 ± 90 pmol/L | Mean glucagon levels during GLP-1 infusion ([1]; IGT subjects, P=0.94 vs saline, mean±SEM): 39.3 ± 5.4 pg/mL | Spectral power for ISR during GLP-1 infusion ([1]; IGT subjects, normalized, P<0.006 vs saline, mean±SEM): 8.9±1.7 | periodicity of the dominant spectral peak in ISR during GLP-1 infusion ([1]; individual IGT subject, period of exogenous glucose infusion 144 minutes): 144 min | Mean ISR 12 hour GLP-1 ([1]; individual IGT subjects D01-D05, GLP-1 0.4 pmol/kg/min for 12 hours with oscillatory glucose infusion): 465.9 and 1042.7 and 365.9 and 1005.8 and 390.9 | Mean glucose 12 hour GLP-1 ([1]; individual IGT subjects D01-D05, GLP-1 0.4 pmol/kg/min i.v. for 12 hours with oscillatory glucose infusion): 6.06 and 6.46 and 6.36 and 6.37 and 6.48 | Spectral power during GLP-1 infusion, individual subject ([1]; one subject with IGT (D02, FIGS. 6A and 6B), 0.6 during saline): 8.9 | pattern of insulin secretory responses to glucose during GLP-1 infusion ([1]; representative subjects with IGT, D01 and D02 (FIGS. 3B and 3D)): improved | Mean ISR 12 hour GLP-1 (subjects with NIDDM; NIDDM group, Mean ± SEM, n=5, GLP-1 0.4 pmol/kg/min for 12 hours): 508 ± 53.4 | Mean glucose 12 hour GLP-1 (subjects with NIDDM; NIDDM group, Mean ± SEM, n=5, GLP-1 0.4 pmol/kg/min for 12 hours, P<0.05 vs saline): 9.40 ± 0.9 | mean ISRs during GLP-1 infusion compared to saline infusion (subjects with NIDDM; NIDDM subjects): not significantly different | mean normalized spectral power for glucose during GLP-1 infusion (subjects with NIDDM; NIDDM subjects, P=0.18 vs saline, mean±SEM): 9.8±0.7 | Mean glucagon levels during GLP-1 infusion (subjects with NIDDM; NIDDM subjects, P=0.4 vs saline, mean±SEM): 46.4 ± 3.2 pg/mL | increase of mean insulin levels during GLP-1 infusion compared to saline (subjects with NIDDM; NIDDM subjects, P=0.56, mean±SEM): 7 ± 12 pmol/L | Spectral power for ISR during GLP-1 infusion (subjects with NIDDM; NIDDM subjects, normalized, P=0.6 vs saline, mean±SEM): 1.5±0.8 | average drop of mean glucose levels during GLP-1 infusion compared to saline (subjects with NIDDM; diabetics (NIDDM), P<0.0005, mean±SEM): 5.2 ± 0.5 mM | Mean ISR 12 hour GLP-1 (subjects with NIDDM; individual NIDDM subjects D06-D10, GLP-1 0.4 pmol/kg/min for 12 hours with oscillatory glucose infusion): 477.7 and 715.4 and 487.7 and 412.5 and 448.9 | Mean glucose 12 hour GLP-1 (subjects with NIDDM; individual NIDDM subjects D06-D10, GLP-1 0.4 pmol/kg/min i.v. for 12 hours with oscillatory glucose infusion): 11.53 and 10.51 and 6.24 and 8.84 and 9.90 | Spectral power during GLP-1 infusion, individual subject (subjects with NIDDM; one subject with NIDDM (D07, FIGS. 6C and 6D), 0.28 during saline): 1.51 and 1.5 | pattern of insulin secretory responses to glucose during GLP-1 infusion (subjects with NIDDM; two subjects with NIDDM, D07 and D09 (FIGS. 4B and 4D)): not improved

SEQ ID NO:5 (EGTFTSDVSSYLEGQAAKEFIAWLVKGRG; mammalian)
production or release of insulin from the pancreas (pancreas): do not stimulate the production or release of insulin from the pancreas

SEQ ID NO:6 (EGTFTSDVSSYLEGQAAKEFIAWLVKGR-NH2)
production or release of insulin from the pancreas (pancreas): do not stimulate the production or release of insulin from the pancreas
